Assay results reported in the supplement of paper PMC10307832.

Legend:
Test in all cases: relative viability (nuclei count vs DMSO), 5 days (fraction); higher = more cells survive
NCI-H1755 = test system: NCI-H1755
Procedure, shortened: (§1)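 After 5 days of treatment, lung cancer cells in 1536-well plates were fixed and stained in a single step (final 0.05% Triton X-100, 1% formaldehyde, 1 ug/ml Hoechst) and their nuclei counted on 4× images. Treatment had been applied by pin tool the day after seeding as one drug alone or as a fixed anchor-drug dose with five library-drug doses (not always all listed) in √10 steps. Relative viability is the nuclei count of treated wells divided by that of vehicle wells, and values are medians of duplicate plates.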

COR-L 105 = test system: COR-L 105
Procedure, shortened: as §1

A-427 = test system: A-427
Procedure, shortened: as §1

NCI-H1395 = test system: NCI-H1395
Procedure, shortened: as §1

NCI-H2009 = test system: NCI-H2009
Procedure, shortened: as §1

SK-LU-1 = test system: SK-LU-1
Procedure, shortened: as §1

LCLC-103H = test system: LCLC-103H
Procedure, shortened: as §1

HARA = test system: HARA
Procedure, shortened: as §1

EMC-BAC-2 = test system: EMC-BAC-2
Procedure, shortened: as §1

HOP-62 = test system: HOP-62
Procedure, shortened: as §1

NCI-H1437 = test system: NCI-H1437
Procedure, shortened: as §1

NCI-H1915 = test system: NCI-H1915
Procedure, shortened: as §1

NCI-H1792 = test system: NCI-H1792
Procedure, shortened: as §1

NCI-H460 = test system: NCI-H460
Procedure, shortened: as §1

HCC-366 = test system: HCC-366
Procedure, shortened: as §1

SW 1573 = test system: SW 1573
Procedure, shortened: as §1

NCI-H2228 = test system: NCI-H2228
Procedure, shortened: as §1

CAL-12T = test system: CAL-12T
Procedure, shortened: as §1

HCC-827 = test system: HCC-827
Procedure, shortened: as §1

NCI-H522 = test system: NCI-H522
Procedure, shortened: as §1

NCI-H23 = test system: NCI-H23
Procedure, shortened: as §1

SMILES: COc1cc2nccc(Oc3ccc(NC(=O)Nc4cc(C)on4)c(Cl)c3)c2cc1OC [Tivozanib] + Nc1nc2[nH]cc(CCc3ccc(C(=O)N[C@@H](CCC(=O)O)C(=O)O)cc3)c2c(=O)[nH]1 [Pemetrexed] (partner 0.2 µM)
- relative viability (NCI-H1755; first compound 0.005 µM): 0.376
- relative viability (NCI-H1755; first compound 0.01581 µM): 0.437
- relative viability (NCI-H1755; first compound 0.05 µM): 0.571
- relative viability (NCI-H1755; first compound 0.1581 µM): 0.468
- relative viability (NCI-H1755; first compound 0.5 µM): 0.361
- relative viability (COR-L 105; first compound 0.005 µM): 0.919
- relative viability (COR-L 105; first compound 0.01581 µM): 1.08
- relative viability (COR-L 105; first compound 0.05 µM): 1.34
- relative viability (COR-L 105; first compound 0.1581 µM): 1.13
- relative viability (COR-L 105; first compound 0.5 µM): 1.27
- relative viability (A-427; first compound 0.005 µM): 0.973
- relative viability (A-427; first compound 0.01581 µM): 0.952
- relative viability (A-427; first compound 0.05 µM): 0.961
- relative viability (A-427; first compound 0.1581 µM): 0.926
- relative viability (A-427; first compound 0.5 µM): 0.979
- relative viability (NCI-H1395; first compound 0.005 µM): 0.89
- relative viability (NCI-H1395; first compound 0.01581 µM): 1.02
- relative viability (NCI-H1395; first compound 0.05 µM): 0.938
- relative viability (NCI-H1395; first compound 0.1581 µM): 0.775
- relative viability (NCI-H1395; first compound 0.5 µM): 0.579
- relative viability (NCI-H2009; first compound 0.005 µM): 0.994
- relative viability (NCI-H2009; first compound 0.01581 µM): 1.04
- relative viability (NCI-H2009; first compound 0.05 µM): 0.995
- relative viability (NCI-H2009; first compound 0.1581 µM): 1.06
- relative viability (NCI-H2009; first compound 0.5 µM): 0.933
- relative viability (SK-LU-1; first compound 0.005 µM): 1
- relative viability (SK-LU-1; first compound 0.01581 µM): 0.928
- relative viability (SK-LU-1; first compound 0.05 µM): 0.997
- relative viability (SK-LU-1; first compound 0.1581 µM): 0.905
- relative viability (SK-LU-1; first compound 0.5 µM): 0.991
- relative viability (LCLC-103H; first compound 0.005 µM): 0.453
- relative viability (LCLC-103H; first compound 0.01581 µM): 0.508
- relative viability (LCLC-103H; first compound 0.05 µM): 0.49
- relative viability (LCLC-103H; first compound 0.1581 µM): 0.459
- relative viability (LCLC-103H; first compound 0.5 µM): 0.46
- relative viability (HARA; first compound 0.005 µM): 0.275
- relative viability (HARA; first compound 0.01581 µM): 0.259
- relative viability (HARA; first compound 0.05 µM): 0.249
- relative viability (HARA; first compound 0.1581 µM): 0.243
- relative viability (HARA; first compound 0.5 µM): 0.245
- relative viability (EMC-BAC-2; first compound 0.005 µM): 0.463
- relative viability (EMC-BAC-2; first compound 0.01581 µM): 0.465
- relative viability (EMC-BAC-2; first compound 0.05 µM): 0.431
- relative viability (EMC-BAC-2; first compound 0.1581 µM): 0.507
- relative viability (EMC-BAC-2; first compound 0.5 µM): 0.398
- relative viability (HOP-62; first compound 0.005 µM): 0.353
- relative viability (HOP-62; first compound 0.01581 µM): 0.301
- relative viability (HOP-62; first compound 0.05 µM): 0.245
- relative viability (HOP-62; first compound 0.1581 µM): 0.36
- relative viability (HOP-62; first compound 0.5 µM): 0.232
- relative viability (NCI-H1437; first compound 0.005 µM): 0.251
- relative viability (NCI-H1437; first compound 0.01581 µM): 0.287
- relative viability (NCI-H1437; first compound 0.05 µM): 0.366
- relative viability (NCI-H1437; first compound 0.1581 µM): 0.313
- relative viability (NCI-H1437; first compound 0.5 µM): 0.31
- relative viability (NCI-H1915; first compound 0.005 µM): 0.518
- relative viability (NCI-H1915; first compound 0.01581 µM): 0.467
- relative viability (NCI-H1915; first compound 0.05 µM): 0.504
- relative viability (NCI-H1915; first compound 0.1581 µM): 0.468
- relative viability (NCI-H1915; first compound 0.5 µM): 0.46
- relative viability (NCI-H1792; first compound 0.005 µM): 0.865
- relative viability (NCI-H1792; first compound 0.01581 µM): 0.792
- relative viability (NCI-H1792; first compound 0.05 µM): 1.02
- relative viability (NCI-H1792; first compound 0.5 µM): 1
- relative viability (NCI-H460; first compound 0.005 µM): 0.0664
- relative viability (NCI-H460; first compound 0.01581 µM): 0.0619
- relative viability (NCI-H460; first compound 0.05 µM): 0.0637
- relative viability (NCI-H460; first compound 0.1581 µM): 0.063
- relative viability (NCI-H460; first compound 0.5 µM): 0.0689
- relative viability (HCC-366; first compound 0.005 µM): 0.16
- relative viability (HCC-366; first compound 0.01581 µM): 0.192
- relative viability (HCC-366; first compound 0.05 µM): 0.162
- relative viability (HCC-366; first compound 0.1581 µM): 0.234
- relative viability (HCC-366; first compound 0.5 µM): 0.126
- relative viability (SW 1573; first compound 0.005 µM): 0.761
- relative viability (SW 1573; first compound 0.01581 µM): 0.766
- relative viability (SW 1573; first compound 0.05 µM): 0.805
- relative viability (SW 1573; first compound 0.1581 µM): 0.666
- relative viability (SW 1573; first compound 0.5 µM): 0.775
- relative viability (NCI-H2228; first compound 0.005 µM): 0.31
- relative viability (NCI-H2228; first compound 0.01581 µM): 0.32
- relative viability (NCI-H2228; first compound 0.05 µM): 0.369
- relative viability (NCI-H2228; first compound 0.1581 µM): 0.346
- relative viability (NCI-H2228; first compound 0.5 µM): 0.315
- relative viability (CAL-12T; first compound 0.005 µM): 1.25
- relative viability (CAL-12T; first compound 0.01581 µM): 1.15
- relative viability (CAL-12T; first compound 0.05 µM): 1.13
- relative viability (CAL-12T; first compound 0.1581 µM): 1.13
- relative viability (CAL-12T; first compound 0.5 µM): 1.12
- relative viability (HCC-827; first compound 0.005 µM): 0.266
- relative viability (HCC-827; first compound 0.01581 µM): 0.255
- relative viability (HCC-827; first compound 0.05 µM): 0.242
- relative viability (HCC-827; first compound 0.1581 µM): 0.259
- relative viability (HCC-827; first compound 0.5 µM): 0.253
- relative viability (NCI-H522; first compound 0.005 µM): 1.03
- relative viability (NCI-H522; first compound 0.01581 µM): 1.1
- relative viability (NCI-H522; first compound 0.05 µM): 1.04
- relative viability (NCI-H522; first compound 0.1581 µM): 0.824
- relative viability (NCI-H522; first compound 0.5 µM): 1.15
- relative viability (NCI-H23; first compound 0.005 µM): 0.588
- relative viability (NCI-H23; first compound 0.01581 µM): 0.771
- relative viability (NCI-H23; first compound 0.05 µM): 0.787
- relative viability (NCI-H23; first compound 0.5 µM): 0.54
